Where a SMILES comes first, the peptide text is derived from it.
Legend:
[1] = system: human TAS1R2-TAS1R3 heteromer; settings: cited from earlier work
rTas1r2-rTas1r3 = target: T1, rTas1r2-rTas1r3 (Rattus norvegicus, UniProt Q923K1+Q9Z0R7); assay: Calcium mobilization (FLIPR) in transfected HEK293T-Gα16gust44 cells, rat sweet receptor; settings: asp 15 mM; cyc 30 mM; neo 0.1 mM; sac 10 mM; suc 100 mM; stev 1 mM
T1 sequence (Q9Z0R7 20-843): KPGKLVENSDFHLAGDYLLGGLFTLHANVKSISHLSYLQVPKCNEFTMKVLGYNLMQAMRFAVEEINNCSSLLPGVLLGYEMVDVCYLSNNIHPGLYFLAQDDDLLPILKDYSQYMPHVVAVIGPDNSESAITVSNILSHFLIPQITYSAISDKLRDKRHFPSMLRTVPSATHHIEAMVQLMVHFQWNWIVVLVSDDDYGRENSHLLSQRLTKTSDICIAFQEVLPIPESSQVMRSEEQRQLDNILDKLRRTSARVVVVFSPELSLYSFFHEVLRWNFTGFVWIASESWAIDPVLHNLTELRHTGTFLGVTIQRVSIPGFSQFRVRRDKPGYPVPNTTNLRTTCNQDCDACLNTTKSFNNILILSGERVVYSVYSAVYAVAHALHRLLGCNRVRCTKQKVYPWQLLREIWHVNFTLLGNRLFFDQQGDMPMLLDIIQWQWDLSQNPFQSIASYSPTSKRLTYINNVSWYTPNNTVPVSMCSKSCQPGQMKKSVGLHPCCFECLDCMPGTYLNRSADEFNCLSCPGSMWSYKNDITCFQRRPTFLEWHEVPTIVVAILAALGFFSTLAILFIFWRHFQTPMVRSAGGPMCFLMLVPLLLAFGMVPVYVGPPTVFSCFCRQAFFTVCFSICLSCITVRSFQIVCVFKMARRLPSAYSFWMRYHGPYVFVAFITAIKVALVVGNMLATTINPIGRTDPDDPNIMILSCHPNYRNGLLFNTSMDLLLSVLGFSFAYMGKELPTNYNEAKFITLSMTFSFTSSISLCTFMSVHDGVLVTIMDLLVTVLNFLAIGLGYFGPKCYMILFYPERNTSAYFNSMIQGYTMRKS
T1 sequence (Q923K1 21-858): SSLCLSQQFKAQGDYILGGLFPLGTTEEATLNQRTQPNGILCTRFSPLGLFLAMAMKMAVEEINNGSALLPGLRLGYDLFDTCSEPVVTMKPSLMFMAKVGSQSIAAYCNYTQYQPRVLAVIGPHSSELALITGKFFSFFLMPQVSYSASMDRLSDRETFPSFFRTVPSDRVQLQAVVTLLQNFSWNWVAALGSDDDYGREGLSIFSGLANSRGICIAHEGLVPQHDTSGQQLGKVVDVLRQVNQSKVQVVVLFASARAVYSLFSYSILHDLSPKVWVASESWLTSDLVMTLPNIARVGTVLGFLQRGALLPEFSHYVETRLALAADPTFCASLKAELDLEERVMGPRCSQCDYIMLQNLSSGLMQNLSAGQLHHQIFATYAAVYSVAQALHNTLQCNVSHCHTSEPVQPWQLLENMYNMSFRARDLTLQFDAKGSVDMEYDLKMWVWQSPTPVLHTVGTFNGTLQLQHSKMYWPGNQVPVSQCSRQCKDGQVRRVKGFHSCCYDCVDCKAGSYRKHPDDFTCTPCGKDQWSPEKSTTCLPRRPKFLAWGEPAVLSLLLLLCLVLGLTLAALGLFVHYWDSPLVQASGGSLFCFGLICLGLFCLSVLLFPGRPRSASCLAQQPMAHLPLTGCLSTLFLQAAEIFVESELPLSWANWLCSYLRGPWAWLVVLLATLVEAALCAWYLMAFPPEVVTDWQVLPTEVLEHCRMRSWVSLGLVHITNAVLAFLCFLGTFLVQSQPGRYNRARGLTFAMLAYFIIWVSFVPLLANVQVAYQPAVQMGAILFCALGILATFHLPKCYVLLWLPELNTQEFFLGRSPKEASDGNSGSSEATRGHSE

Compound	activation of receptor (calcium response) (rTas1r2-rTas1r3)	activation of heteromer [1]
COc1ccc(CCC(=O)c2c(O)cc(O[C@@H]3O[C@H](CO)[C@@H](O)[C@H](O)[C@H]3O[C@@H]3O[C@@H](C)[C@H](O)[C@@H](O)[C@H]3O)cc2O)cc1O [neohesperidine dihydrochalcone]	did not activate	–
OC[C@H]1O[C@@](CO)(O[C@H]2O[C@H](CO)[C@@H](O)[C@H](O)[C@H]2O)[C@@H](O)[C@@H]1O [sucrose]	robustly activated	–

Now from value to molecule, other results behind:

activation of receptor (calcium response) (rTas1r2-rTas1r3)	Compound	activation of heteromer [1]
did not activate	COC(=O)[C@H](Cc1ccccc1)NC(=O)[C@@H](N)CC(=O)O [aspartame] (HELM PEPTIDE1{D.F.[CO[*:1]]}$$$$V2.0)	only activate the human
did not activate	O=S(=O)(O)NC1CCCCC1 [cyclamate]	only activate the human
robustly activated	C=C1C[C@@]23CC[C@H]4[C@@](C)(CCC[C@@]4(C)C(=O)O[C@@H]4O[C@H](CO)[C@@H](O)[C@H](O)[C@H]4O)[C@@H]2CC[C@]1(O[C@@H]1O[C@H](CO)[C@@H](O)[C@H](O)[C@H]1O[C@@H]1O[C@H](CO)[C@@H](O)[C@H](O)[C@H]1O)C3 [stevioside]	–
